Series [1] is described as follows: Trial of bedtime versus awakening administered Valsartan, blood pressure. The format is in vivo. The source says:
Taking an angiotensin receptor blocker (ARB) or an […] (ACE) inhibitor before bedtime is known to cause a drop in blood pressure. […] Thus, current treatment methods are insufficient to induce a dip in non-dippers.

The conditions of series [2]: cited from earlier work.
The conditions of series [3]: cited from earlier work. The source holds these as a separate data set.
Where [4] appears, read: half-life of therapeutic compound as listed in Table 1.
The mark [5] stands for this setting: half-life of top selling therapeutic compounds (Table 1).

Where two headings read alike, the source gives them in different places.

Turning to `CCCCC(=O)N(Cc1ccc(-c2ccccc2-c2nnn[nH]2)cc1)[C@H](C(=O)O)C(C)C` [Valsartan], in series [1] (bedtime minus awakening), the “net blood pressure difference bedtime vs awakening, first value of printed pair” value was 8 mmHg and the “net blood pressure difference bedtime vs awakening, second value of printed pair” value is 6 mmHg. For the same molecule, the “better result of bedtime group than the awakening group” value in series [1] (bedtime vs awakening group) is listed as 10 mmHg. The “time at which concentration in plasma reaches the maximum after administration” value in series [2] was 2 to 4 h. As to `C[C@H]1C[C@@H]2[C@H]([C@@H](O)C[C@@]3(C)[C@H]2CC[C@]3(O)C(=O)CO)[C@@]2(C)C=CC(=O)C=C12` [Methylprednisolone], the “½ Life” value in series [3] (setting [4]) was 1 h.

As for `CCOC(=O)c1ncn2c1CN(C)C(=O)c1cc(F)ccc1-2` [Flumazenil], the “½ Life” value in series [3] (setting [5]) is 4 h. Regarding `OC[C@H]1O[C@@H](n2cnc3c2NC=NC[C@H]3O)C[C@@H]1O` [Pentostatin], in series [3] (setting [4]), the “½ Life” value was 5.7 h.

As to `CN1CCN(C2=Nc3ccccc3Oc3ccc(Cl)cc32)CC1` [Loxapine], the “½ Life” value in series [3] (setting [4]) is 4 h.

`C[C@]12C=CC(=O)C=C1CC[C@@H]1[C@@H]2[C@@H](O)C[C@@]2(C)[C@H]1CC[C@]2(O)C(=O)CO` [Prednisolone]: the “½ Life” value in series [3] (in vivo) was 2 h. Take `CC(C)(Oc1ccc(CCNC(=O)c2ccc(Cl)cc2)cc1)C(=O)O` [Bezafibrate, reference compound]: the “½ Life” value in series [3] (setting [5]) was 1 h.

Consider `O=C(O)Cc1ccccc1Nc1c(Cl)cccc1Cl` [Diclofenac], for which the “½ Life” value in series [3] (in vivo) is 2 h.

For the molecule `CC(=O)N[C@@H](CS)C(=O)O` [Acetylcysteine], the “½ Life” value in series [3] (setting [5]) was 5.6 h.

In the case of `CCCCC[C@H](O)CC[C@@H]1[C@H]2Cc3cccc(OCC(=O)O)c3C[C@H]2C[C@H]1O` [Treprostinil], the “½ Life” value in series [3] (in vivo) is 2 h. With `CN1CCC[C@@H]1Cc1c[nH]c2ccc(CCS(=O)(=O)c3ccccc3)cc12` [Eletriptan], the “½ Life” value in series [3] (setting [5]) was 4 h.

For the molecule `C[C@@]12CCCCC[C@@H](Cc3ccc(O)cc31)[C@@H]2N` [Dezocine], the “½ Life” value in series [3] (in vivo) is 2.2 h. As to `Cc1ncc2n1-c1ccc(Cl)cc1C(c1ccccc1F)=NC2` [Midazolam], the “½ Life” value in series [3] (in vivo) is 1.8 h. In the case of `CN(C)CCc1c[nH]c2ccc(CS(=O)(=O)N3CCCC3)cc12` [Almotriptan], the “½ Life” value in series [3] (setting [5]) was 3 h. Take `C[C@]12CC[C@H](O)CC1=CC[C@@H]1[C@@H]2CC[C@]2(C)C(c3cccnc3)=CC[C@@H]12` [Abiraterone]: the “½ Life” value in series [3] (setting [5]) was 5 h. With `O=C1c2ccccc2C(=O)C1c1ccccc1` [Phenindione], the “½ Life” value in series [3] (setting [4]) is 5 h. For the molecule `CC(=O)S[C@@H]1CC2=CC(=O)CC[C@]2(C)[C@H]2CC[C@@]3(C)[C@@H](CC[C@@]34CCC(=O)O4)[C@H]12` [Spironolactone], in series [3] (in vivo), the “½ Life” value is 0.166 h. With `Cc1c(OCC(F)(F)F)ccnc1C[S+]([O-])c1nc2ccccc2[nH]1` (stereo not drawn) [Lansoprazole], the “½ Life” value in series [3] (setting [4]) is 1.5 h. With `CC(=O)N1CCN(c2ccc(OCC3COC(Cn4ccnc4)(c4ccc(Cl)cc4Cl)O3)cc2)CC1` (stereo not drawn) [Ketoconazole], the “½ Life” value in series [3] (setting [4]) is 2 h. On to `Cc1ccc(C)c(OCCCC(C)(C)C(=O)O)c1` [Gemfibrozil, reference compound], for which the “½ Life” value in series [3] (setting [4]) is 1.5 h. In series [3] (see Table 1), the half-life entry is “one and a half”; the minimum reported half-life entry was “one and a half”. On to `O=C(CCCCCCC(=O)Nc1ccccc1)NO` [Vorinostat], for which, in series [3] (in vivo), the “½ Life” value was 2 h. In the case of Leptin, the “½ Life” value in series [3] (in vivo) was 0.415 h. Regarding `Cc1cccc(Nc2ccccc2C(=O)O)c1C` [Mefenamic acid], in series [3] (setting [4]), the “½ Life” value is 2 h. Consider Bleomycin, for which, in series [3] (setting [5]), the “½ Life” value is 1.916 h.

Turning to Nitroprusside, in series [3] (in vivo), the “½ Life” value was 0.033 h. As for `CN1CC[C@]23c4c5ccc(O)c4O[C@H]2C(=O)CC[C@@]3(O)[C@H]1C5` [Oxymorphone], in series [3] (setting [4]), the “½ Life” value is 1.3 h. Take `COc1ccc(C[C@@H]2c3cc(OC)c(OC)cc3CC[N@+]2(C)CCC(=O)OCCCCCOC(=O)CC[N@@+]2(C)CCc3cc(OC)c(OC)cc3[C@H]2Cc2ccc(OC)c(OC)c2)cc1OC` [Cisatracurium Besylate]: the “½ Life” value in series [3] (setting [5]) is 0.366 h. As to `CNCC[C@@H](Oc1ccccc1C)c1ccccc1` [Atomoxetine], the “½ Life” value in series [3] (setting [5]) was 5 h.

As to `CCN(CC)CCN1C(=O)CN=C(c2ccccc2F)c2cc(Cl)ccc21` [Flurazepam], the “½ Life” value in series [3] (setting [5]) was 2.3 h.

For `CC[C@@H](c1cccc(O)c1)[C@@H](C)CN(C)C` [Tapentadol], the “½ Life” value in series [3] (in vivo) was 4 h. Turning to `CCOC(=O)Nc1ccc2c(c1)N(C(=O)CCN1CCOCC1)c1ccccc1S2` [Moricizine], in series [3] (setting [4]), the “½ Life” value was 2 h. Take `CN(C)CCc1c[nH]c2ccc(C[C@H]3COC(=O)N3)cc12` [Zolmitriptan]: the “½ Life” value in series [3] (in vivo) is 3 h. On to Rituximab, for which the “½ Life” value in series [3] (in vivo) is 0.8 h. For `COc1ccc2cccc(CCNC(C)=O)c2c1` [Agomelatine], the “½ Life” value in series [3] (setting [5]) is 2 h. With `OC(CCCN1CCCCC1)(c1ccccc1)c1ccccc1` [Diphenidol], the “½ Life” value in series [3] (setting [5]) is 4 h. For `CCn1cc(C(=O)O)c(=O)c2cc(F)c(N3CCNCC3)nc21` [Enoxacin], the “½ Life” value in series [3] (setting [5]) was 3 h. As for `CNC(=O)c1cnn(-c2nc(N)c3ncn([C@@H]4O[C@H](CO)[C@@H](O)[C@H]4O)c3n2)c1` [Regadenoson], the “½ Life” value in series [3] (in vivo) is 0.033 h. In the case of `CN1CC[C@]23c4c5ccc(O)c4O[C@H]2[C@@H](O)C=C[C@H]3[C@H]1C5` [Morphine], the “½ Life” value in series [3] (in vivo) was 2 h.

With `CC(N)C(O)c1ccccc1` (stereo not drawn) [Phenylpropanolamine], in series [3] (in vivo), the “½ Life” value is 2.1 h.

As to `COC(=O)[C@@H]1CC2=CC(=O)CC[C@]2(C)[C@@]23O[C@@H]2C[C@@]2(C)[C@@H](CC[C@@]24CCC(=O)O4)[C@H]13` [Eplerenone], in series [3] (setting [5]), the “½ Life” value is 4 h. Regarding `CCCCNc1ccc(C(=O)OCCOCCOCCOCCOCCOCCOCCOCCOCCOC)cc1` [Benzonatate], the “½ Life” value in series [3] (setting [5]) is 3 h. On to `CN1CCN(C(=O)OC2c3nccnc3C(=O)N2c2ccc(Cl)cn2)CC1` (stereo not drawn) [Zopiclone], for which, in series [3] (in vivo), the “½ Life” value was 5 h. For the molecule `CNC[C@H](O)c1ccc(O)c(O)c1` [Epinephrine], the “½ Life” value in series [3] (setting [5]) is 0.033 h.

As to `CC[C@H](C)[C@@H]1NC(=O)[C@H](Cc2ccc(O)cc2)NC(=O)[C@@H](N)CSSC[C@@H](C(=O)N2CCC[C@H]2C(=O)N[C@@H](CC(C)C)C(=O)NCC(N)=O)NC(=O)[C@H](CC(N)=O)NC(=O)[C@H](CCC(N)=O)NC1=O` [Oxytocin], the “½ Life” value in series [3] (in vivo) was 0.0166 h. Regarding `C[n+]1ccccc1/C=N/O` [Pralidoxime], the “½ Life” value in series [3] (setting [4]) is 1.233 h. Turning to Enoxaparin, the “½ Life” value in series [3] (in vivo) was 4.5 h.

The values are drawn from US20210137911A1, “NOVEL CHRONOTHERAPY BASED ON CIRCADIAN RHYTHMS” (THE TRUSTEES OF THE UNIVERSITY OF PENNSYLVANIA, priority 2014, published 2021).
